We go through 42 compounds from patent US20080090805A1, “CB-1 MODULATING COMPOUNDS AND THEIR USE” (ACADIA PHARMACEUTICALS INC., priority 2005, published 2008).

A short description of data set [1]: Clearance study, liver microsomes (rats). Conditions: rat, pH 7.4.
A short description of data set [2]: Clearance study, liver microsomes (mice). Conditions: mouse, pH 7.4.
Data set [3] can be described thus: Clearance study, liver microsomes (human). As to conditions: pH 7.4.

Consider `CCCCNC(=O)c1ccc2c(c1)N=C(c1ccc(F)cn1)c1ccccc1S2` [drawing 1752], for which the microsomal CLint at 1 μM was 264 µL/min/mg in data set [1], 668 µL/min/mg in data set [2] and 56 µL/min/mg in data set [3].

For `O=C(NCc1ccccc1)c1ccc2c(c1)N=C(c1ccc(Cl)cc1)c1ccccc1S2` [drawing 1801], the microsomal CLint at 1 μM in data set [1] was 63 µL/min/mg; in data set [2] it was 166 µL/min/mg; in data set [3] it was 23 µL/min/mg.

Consider `CC(C)CNC(=O)c1ccc2c(c1)N=C(c1ccc(Cl)cc1F)c1ccccc1S2` [drawing 1677], for which the intrinsic clearance (microsomal CLint) at 1 μM is 51 µL/min/mg in data set [1], 98 µL/min/mg in data set [2] and 20 µL/min/mg in data set [3].

With `O=C(NCc1cccs1)c1ccc2c(c1)N=C(c1ccc(Cl)s1)c1ccccc1S2` [drawing 1723], the results for the microsomal CLint at 1 μM in data set [1], in data set [2] and in data set [3] were 97 µL/min/mg, 184 µL/min/mg and 30 µL/min/mg, respectively.

Turning to `O=C(NCc1cccs1)c1ccc2c(c1)N=C(c1ccc(F)cc1)c1ccccc1S2` [drawing 1659], the microsomal CLint at 1 μM in data set [1] is 171 µL/min/mg; in data set [2], 171 µL/min/mg; in data set [3] it was 52 µL/min/mg.

For the compound `O=C(NCCc1cccnc1)c1ccc2c(c1)N=C(c1ccc(Cl)c(Cl)c1)c1ccccc1S2` [drawing 1668], the microsomal CLint at 1 μM amounted to 65 µL/min/mg in data set [1], 82 µL/min/mg in data set [2] and 41 µL/min/mg in data set [3].

For the compound `O=C(NC1CCCCC1)c1ccc2c(c1)N=C(c1cccc(F)c1)c1ccccc1S2` [drawing 1757], the microsomal CLint at 1 μM in data set [1] is 90 µL/min/mg; in data set [2] it was 176 µL/min/mg; in data set [3], 29 µL/min/mg.

In the case of `CCCNC(=O)c1ccc2c(c1)N=C(c1ccc(Cl)cc1)c1ccccc1S2` [drawing 1691], the microsomal CLint at 1 μM in data set [1] was determined as 63 µL/min/mg; in data set [2] it was 694 µL/min/mg; in data set [3] it was 15 µL/min/mg.

Turning to `O=C(NCc1ccccc1)c1ccc2c(c1)N=C(c1cccc(Br)c1)c1ccccc1S2`, the microsomal CLint at 1 μM in data set [1] was 69 µL/min/mg; in data set [2], 566 µL/min/mg; in data set [3] it was 4 µL/min/mg.

With `O=C(NN1CCCCC1)c1ccc2c(c1)N=C(c1ccc(Cl)cn1)c1ccccc1S2` [drawing 1786], the figures for the microsomal CLint at 1 μM in data set [1], in data set [2] and in data set [3] were 290 µL/min/mg, 416 µL/min/mg and 64 µL/min/mg, respectively.

For `O=C(NC1CCCCC1)c1ccc2c(c1)N=C(c1ccc(Cl)cc1)c1ccccc1S2` [drawing 1712], the microsomal CLint at 1 μM came out at 43 µL/min/mg in data set [1], 78 µL/min/mg in data set [2] and 8 µL/min/mg in data set [3].

Turning to `O=C(NCCc1cccnc1)c1ccc2c(c1)N=C(c1ccc(Cl)s1)c1ccccc1S2` [drawing 1690], the figures for the microsomal CLint at 1 μM in data set [1], in data set [2] and in data set [3] were 96 µL/min/mg, 122 µL/min/mg and 238 µL/min/mg, respectively.

As for `O=C(NCc1ccccc1Cl)c1ccc2c(c1)N=C(c1cccc(Cl)c1)c1ccccc1S2` [drawing 1674], the microsomal CLint at 1 μM in data set [1] turned out to be 48 µL/min/mg; in data set [2] it was 124 µL/min/mg; in data set [3] it was 28 µL/min/mg.

As for `O=C(NN1CCCCC1)c1ccc2c(c1)N=C(c1ccc(Cl)cc1)c1ccccc1S2` [drawing 1676], the intrinsic metabolic clearance (microsomal CLint) at 1 μM in data set [1] is 60 µL/min/mg; in data set [2], 126 µL/min/mg; in data set [3] it was 32 µL/min/mg.

Take `CC(C)CCNC(=O)c1ccc2c(c1)N=C(c1cccc(Cl)c1)c1ccccc1S2` [drawing 1665]: the microsomal CLint at 1 μM is 77 µL/min/mg in data set [1], 249 µL/min/mg in data set [2] and 25 µL/min/mg in data set [3].

As for `O=C(NCc1ccc(F)cc1)c1ccc2c(c1)N=C(c1ccc(Cl)cc1)c1ccccc1[S+]2[O-]` (stereo not drawn) [drawing 1772], the figures for the microsomal CLint at 1 μM in data set [1], in data set [2] and in data set [3] were 31 µL/min/mg, 37 µL/min/mg and 11 µL/min/mg, respectively.

For the compound `CCCCNC(=O)c1ccc2c(c1)N=C(c1ccc(Cl)cc1)c1ccccc1[S+]2[O-]` (stereo not drawn) [drawing 1736], the microsomal CLint at 1 μM in data set [1] came out at 41 µL/min/mg; in data set [2] it was 53 µL/min/mg; in data set [3], 31 µL/min/mg.

Take `O=C(NCc1cccs1)c1ccc2c(c1)N=C(c1ccccc1F)c1ccccc1S2` [drawing 1744]: the microsomal CLint at 1 μM in data set [1] came out at 225 µL/min/mg; in data set [2], 386 µL/min/mg; in data set [3], 89 µL/min/mg.

Turning to `COc1ccc(C2=Nc3cc(C(=O)NCC(C)C)ccc3Sc3ccccc32)cc1` [drawing 1708], the microsomal CLint at 1 μM in data set [1] was 113 µL/min/mg; in data set [2], 218 µL/min/mg; in data set [3] it was 78 µL/min/mg.

For `CC(C)CNC(=O)c1ccc2c(c1)N=C(c1ccc(Cl)c(Cl)c1)c1ccccc1S2` [drawing 1671], the microsomal CLint at 1 μM turned out to be 26 µL/min/mg in data set [1], 107 µL/min/mg in data set [2] and 4 µL/min/mg in data set [3].

Regarding `O=C(NN1CCCCCC1)c1ccc2c(c1)N=C(c1ccc(Cl)s1)c1ccccc1S2` [drawing 1687], the figures for the microsomal CLint at 1 μM in data set [1], in data set [2] and in data set [3] were 186 µL/min/mg, 360 µL/min/mg and 122 µL/min/mg, respectively.

On to `O=C(NCc1ccc(F)cc1)c1ccc2c(c1)N=C(c1ccc(Cl)cc1)c1ccccc1S2` [drawing 1741], for which the values for the microsomal CLint at 1 μM in data set [1], in data set [2] and in data set [3] were 56 µL/min/mg, 130 µL/min/mg and 16 µL/min/mg, respectively.

In the case of `O=C(NCc1ccccc1)c1ccc2c(c1)N=C(c1cccc(Cl)c1)c1ccccc1S2` [drawing 1767], the microsomal CLint at 1 μM was 85 µL/min/mg in data set [1], 205 µL/min/mg in data set [2] and 23 µL/min/mg in data set [3].

For the compound `C[C@@H]1CCC[C@H](C)N1NC(=O)c1ccc2c(c1)N=C(c1cccc(F)c1)c1ccccc1S2` [drawing 1758], the microsomal CLint at 1 μM came out at 318 µL/min/mg in data set [1], 659 µL/min/mg in data set [2] and 513 µL/min/mg in data set [3].

On to `O=C(NCc1ccco1)c1ccc2c(c1)N=C(c1ccc(Cl)cc1)c1ccccc1S2` [drawing 1803], for which the values for the intrinsic metabolic clearance (microsomal CLint) at 1 μM in data set [1], in data set [2] and in data set [3] were 75 µL/min/mg, 97 µL/min/mg and 29 µL/min/mg, respectively.

For the compound `O=C(NC1CCCCC1)c1ccc2c(c1)N=C(c1ccc(F)cc1)c1ccccc1S2` [drawing 1683], the figures for the microsomal CLint at 1 μM in data set [1], in data set [2] and in data set [3] were 108 µL/min/mg, 62 µL/min/mg and 31 µL/min/mg, respectively.

Regarding `O=C(NCc1cccnc1)c1ccc2c(c1)N=C(c1ccc(F)cc1)c1ccccc1S2` [drawing 1724], the intrinsic metabolic clearance (microsomal CLint) at 1 μM amounted to 107 µL/min/mg in data set [1], 101 µL/min/mg in data set [2] and 61 µL/min/mg in data set [3].

For `Cc1ccsc1C1=Nc2cc(C(=O)NN3CCCCCC3)ccc2Sc2ccccc21` [drawing 1706], the results for the microsomal CLint at 1 μM in data set [1], in data set [2] and in data set [3] were 358 µL/min/mg, 448 µL/min/mg and 118 µL/min/mg, respectively.

Consider `O=C(NCc1cccc(Cl)c1)c1ccc2c(c1)N=C(c1ccc(F)cc1)c1ccccc1S2(=O)=O` [drawing 1670], for which the microsomal CLint at 1 μM in data set [1] amounted to 31 µL/min/mg; in data set [2], 32 µL/min/mg; in data set [3], 32 µL/min/mg.

Consider `O=C(NN1CCCCCC1)c1ccc2c(c1)N=C(c1cccc(Cl)c1)c1ccccc1S2` [drawing 1689], for which the microsomal CLint at 1 μM in data set [1] was found to be 162 µL/min/mg; in data set [2], 124 µL/min/mg; in data set [3] it was 59 µL/min/mg.

On to `O=C(NCc1ccco1)c1ccc2c(c1)N=C(c1ccc(Cl)s1)c1ccccc1S2` [drawing 1656], for which the microsomal CLint at 1 μM was 98 µL/min/mg in data set [1], 127 µL/min/mg in data set [2] and 42 µL/min/mg in data set [3].

Take `O=C(NCc1ccccn1)c1ccc2c(c1)N=C(c1ccc(Cl)cc1)c1ccccc1S2` [drawing 1760]: the microsomal CLint at 1 μM was 46 µL/min/mg in data set [1], 73 µL/min/mg in data set [2] and 37 µL/min/mg in data set [3].

Regarding `O=C(NCc1cccs1)c1ccc2c(c1)N=C(c1ccc(Cl)cc1)c1ccccc1S2` [drawing 1735], the microsomal CLint at 1 μM in data set [1] amounted to 76 µL/min/mg; in data set [2], 90 µL/min/mg; in data set [3], 17 µL/min/mg.

In the case of `CC(C)CNC(=O)c1ccc2c(c1)N=C(c1ccc(F)cc1)c1ccccc1S2` [drawing 1761], the microsomal CLint at 1 μM stood at 125 µL/min/mg in data set [1], 354 µL/min/mg in data set [2] and 43 µL/min/mg in data set [3].

Turning to `O=C(NCc1cccs1)c1ccc2c(c1)N=C(c1cccc(F)c1)c1ccccc1S2` [drawing 1658], the intrinsic clearance (microsomal CLint) at 1 μM is 166 µL/min/mg in data set [1], 238 µL/min/mg in data set [2] and 56 µL/min/mg in data set [3].

Regarding `O=C(NCc1cccnc1)c1ccc2c(c1)N=C(c1cccc(F)c1)c1ccccc1S2` [drawing 1742], the microsomal CLint at 1 μM in data set [1] was 187 µL/min/mg; in data set [2], 127 µL/min/mg; in data set [3] it was 73 µL/min/mg.

Take `O=C(NCc1ccco1)c1ccc2c(c1)N=C(c1cccc(Cl)c1)c1ccccc1S2` [drawing 1684]: the microsomal CLint at 1 μM in data set [1] turned out to be 93 µL/min/mg; in data set [2], 133 µL/min/mg; in data set [3] it was 35 µL/min/mg.

Regarding `O=C(NCCc1cccnc1)c1ccc2c(c1)N=C(c1cccc(Cl)c1)c1ccccc1S2` [drawing 1770], the microsomal CLint at 1 μM in data set [1] is 154 µL/min/mg; in data set [2], 82 µL/min/mg; in data set [3] it was 130 µL/min/mg.

As for `Cc1ccsc1C1=Nc2cc(C(=O)NCc3ccco3)ccc2Sc2ccccc21` [drawing 1762], the microsomal CLint at 1 μM in data set [1] was 395 µL/min/mg; in data set [2], 755 µL/min/mg; in data set [3], 155 µL/min/mg.

As for `O=C(NCc1ccc(F)cc1)c1ccc2c(c1)N=C(C1CCCCC1)c1ccccc1S2` [drawing 1775], the figures for the microsomal CLint at 1 μM in data set [1], in data set [2] and in data set [3] were 493 µL/min/mg, 275 µL/min/mg and 58 µL/min/mg, respectively.

For the compound `CCCCNC(=O)c1ccc2c(c1)N=C(c1ccc(Cl)cn1)c1ccccc1S2` [drawing 1704], the results for the microsomal CLint at 1 μM in data set [1], in data set [2] and in data set [3] were 320 µL/min/mg, 477 µL/min/mg and 70 µL/min/mg, respectively.

In the case of `CCCCNC(=O)c1ccc2c(c1)N=C(c1cccc(F)c1)c1ccccc1S2` [drawing 1700], the microsomal CLint at 1 μM in data set [1] turned out to be 152 µL/min/mg; in data set [2], 647 µL/min/mg; in data set [3], 65 µL/min/mg.
